Results reported in patent US20230304058A1, “NOVEL 5'CAP ANALOG HAVING CAP2 STRUCTURE AND PREPARATION METHOD THEREFOR” (Shenzhen Rhegen Biotechnology Co., Ltd., priority 2020, published 2023).

Assays:
[1] = background; cited from earlier work
T7 Enzyme Mix [2] = target: T1, T7 Enzyme Mix (Escherichia phage T7, UniProt P00573); conditions: background, co-transcriptional capping; cited from earlier work
[3] = test system: TLR3, TLR7, TLR8 and RIG-1; test: Intracellular immunogenicity of capped mRNA by RNA immunoprecipitation and quantitative PCR; assay type: cell-based; conditions: relative to ARCA; Human-derived PBMC cells, 5 μg mRNA, Lipofectamine 2000, 24 h
Protocol: Experimental methods: the intracellular immunoproteins TLR3, TLR7, TLR8 and RIG-1 were immunoprecipitated together with their bound RNAs by RNA immunoprecipitation, and finally these mRNAs were identified by real-time quantitative PCR, and their relative abundance was proportional to their immunogenicity.
The cells were collected by trypsin digestion 24 h later and resuspended in PBS, centrifuged, and collected.
Fixative was added to the cells, and after 15 minutes glycine was added for termination of fixation, followed by centrifugation to collect the cells. Cells were resuspended by adding lysate, incubated on ice at 4° C. for 30 min, centrifuged at 2400 g for 10 min, and the supernatant was collected.
TLR3, TLR7, TLR8 and RIG-1 antibodies (2-10 μg) were added to the supernatant (6-10 mg) followed by gentle incubation at 4° C. for 2 hours. Protein AIG beads (40 μL) were then added to them and incubated gently for 1 h at 4° C.
Centrifuge at 2500 rpm for 30 seconds with precipitated magnetic beads and remove the supernatant. Resuspend the beads in 500 μL of RIP buffer. Wash in RIP buffer a total of three times, followed by one wash in PBS.
Resuspend magnetic beads in TRIzol RNA Extraction Reagent (1 mL) and isolate co-precipitated RNA, and then elute RNA using nuclease-free water (20 μL).
6. Reverse transcribe (RT) the RNA into cDNA and design primers according to the mRNA sequence for quantitative PCR analysis. mRNA immunogenicity is proportional to the number of mRNA copies precipitated by magnetic beads.

mRNA [4] = conditions: background, co-transcriptional capping; cited from earlier work
T7 Enzyme Mix [5] = target: T1, T7 Enzyme Mix; test: In vitro transcription mRNA synthesis with cap analog, reaction yield; assay type: biochemical; conditions: per ml transcription reaction system; 37° C. for 6 h; LiCl purification
Protocol: 1. Before synthesizing mRNA, linearize the plasmid with Notl, digested at […] overnight;
2. Extract with DNA template;
React at 37° C. for 6 h. Digest with TURBO DNase for 15 min.
4. Purify the transcription products using LiCl solution and calculate the reaction yields.

mRNA [6] = test: mRNA capping rate by RNase H cleavage and LC-MS; assay type: biochemical; conditions: ratio of capped and uncapped mRNA
Text: The mRNA molecules with different Cap structures obtained in Example 1 were subjected to enzymatic cleavage, and the ratio of capped and uncapped mRNA molecules could be determined in a liquid chromatography-mass spectrometry analysis experiment.
1. Concentrate the beads using a magnet, aspirate the supernatant storage solution, and add an equal volume of 0.1 M NaOH +0.05 M NaCl;
2. Aspirate the supernatant and resuspend the beads with an equal volume of 0.1 M NaCl, keep the concentration constant;
3. Anneal mRNA and cleavage tags, configure the following reaction system;
Gradient annealing: 95° C. 5 min
4. Combining cleavage tags with beads • Beads were centrifuged at 15,000 g for 5 min, and the supernatant was removed, then 120 μl of annealed mRNA and tags were added and incubated for 30 min at room temperature, during which time they were gently shaken to ensure adequate binding.
5. Enzyme cleavage using RNase H; • Add 10 μl RNase H and incubate at 37° C. for 3 h. Precipitate the beads with magnet and discard the supernatant. • Add 100 μl washing buffer, mix thoroughly, magnet precipitate for 2 min, and discard the supernatant. Repeat 3 times. • Wash with DI water for 3 times.
6. Hydrolysis with RppH; • Use 10 units RppH in nebuffer 2 to hydrolyze at room temperature for 1 h.
DI water was aspirated, 100 μl of 75% ethanol preheated to 80° C. was added, incubat for 3 min, and magnet precipitat for 3 min. The supernatant was taken, followed by evaporating, and centrifuge for 45 min to a volume of 10 μl. Finally, the sample was resuspended in 50 μl of […] EDTA/1% MeOH and left for LC-MS analysis.
9. the mRNA capping rate of different Cap analogs synthesized was analyzed with LC-MS.

T1 sequence (P00573 whole entry): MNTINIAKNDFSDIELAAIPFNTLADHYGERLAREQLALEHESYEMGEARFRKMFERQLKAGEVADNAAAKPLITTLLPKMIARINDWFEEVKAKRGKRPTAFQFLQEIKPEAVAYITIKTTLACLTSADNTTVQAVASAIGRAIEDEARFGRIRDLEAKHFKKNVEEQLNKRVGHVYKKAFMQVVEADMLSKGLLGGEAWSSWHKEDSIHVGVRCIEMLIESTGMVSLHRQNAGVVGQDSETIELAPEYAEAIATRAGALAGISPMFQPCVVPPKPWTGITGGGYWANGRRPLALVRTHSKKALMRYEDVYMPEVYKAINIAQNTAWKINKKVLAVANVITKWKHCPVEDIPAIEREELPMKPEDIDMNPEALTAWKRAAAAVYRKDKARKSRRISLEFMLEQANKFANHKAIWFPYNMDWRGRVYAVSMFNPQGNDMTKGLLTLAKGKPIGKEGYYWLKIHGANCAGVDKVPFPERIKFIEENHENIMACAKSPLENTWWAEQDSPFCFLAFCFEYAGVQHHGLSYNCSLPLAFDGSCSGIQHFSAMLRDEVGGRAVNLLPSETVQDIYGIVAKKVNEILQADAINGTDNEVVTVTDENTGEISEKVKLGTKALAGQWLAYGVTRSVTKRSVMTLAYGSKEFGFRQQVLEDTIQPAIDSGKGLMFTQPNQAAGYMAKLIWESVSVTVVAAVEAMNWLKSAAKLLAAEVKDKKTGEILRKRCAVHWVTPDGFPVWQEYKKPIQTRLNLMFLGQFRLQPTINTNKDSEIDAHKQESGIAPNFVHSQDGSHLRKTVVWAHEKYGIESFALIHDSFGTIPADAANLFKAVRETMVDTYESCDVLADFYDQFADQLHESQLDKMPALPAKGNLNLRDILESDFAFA

SMILES | immunogenicity of transcribed product [1] | RNA prepared per ml of transcription reaction system (T7 Enzyme Mix [2]) [mg] | Intracellular immunogenicity of mRNA when using different Cap structures [3] | capping efficiency (mRNA [4]) [%] | Mass of final product obtained from 1 ml mRNA synthesis reaction system (T7 Enzyme Mix [5]) [mg] | mRNA capping rates when using different Cap structures (mRNA [6]) [%]
CO[C@H]1[C@@H](O)[C@H](n2c[n+](C)c3c(=O)[nH]c(N)nc32)O[C@@H]1COP(=O)(O)OP(=O)(O)OP(=O)(O)OC[C@H]1O[C@@H](n2cnc3c(=O)[nH]c(N)nc32)[C@H](O)[C@@H]1O [ARCA] | highly immunogenic | ≤ 1.5 | 1 | 70 | – | –
COC1C(OP(=O)(O)OCC2OC(n3cnc4c(=O)[nH]c(N)nc43)C(O)C2O)C(COP(=O)(O)OP(=O)([O-])OP(=O)(O)OCC2OC(n3c[n+](C)c4c(=O)[nH]c(N)nc43)C(O)C2O)OC1n1cnc2c(N)ncnc21 (centres unmarked) [Cleancap] | less immunogenic than ARCA | 4 | 0.76 | 90 | – | –
CO[C@@H]1[C@H](OP(=O)(O)OC[C@H]2O[C@@H](n3cnc4c(=O)[nH]c(N)nc43)[C@H](OC)[C@@H]2O)[C@@H](COP(=O)(O)OP(=O)(O)OP(=O)([O-])OC[C@H]2O[C@@H](n3c[n+](C)c4c(=O)[nH]c(N)nc43)[C@H](O)[C@@H]2OC)O[C@H]1n1ccc(=O)[nH]c1=O [Cap analog 20, 3-O-Me-m7G(5′)ppp(5′)(2′OMeU)p(2′OMeG)] | – | – | 0.51 | – | 4.6 | 94.42
CO[C@@H]1[C@H](OP(=O)(O)OC[C@H]2O[C@@H](n3cnc4c(=O)[nH]c(N)nc43)[C@H](OC)[C@@H]2O)[C@@H](COP(=O)(O)OP(=O)(O)OP(=O)([O-])OC[C@H]2O[C@@H](n3c[n+](C)c4c(=O)[nH]c(N)nc43)[C@H](O)[C@@H]2OC)O[C@H]1n1ccc(N)nc1=O [Cap analog 19, 3-O-Me-m7G(5′)ppp(5′)(2′OMeC)p(2′OMeG)] | – | – | 0.26 | – | 4.4 | 95
CO[C@@H]1[C@H](O)[C@@H](COP(=O)(O)O[C@H]2[C@@H](OC)[C@H](n3ccc(N)nc3=O)O[C@@H]2COP(=O)(O)OP(=O)(O)OP(=O)([O-])OC[C@H]2O[C@@H](n3c[n+](C)c4c(=O)[nH]c(N)nc43)[C@H](O)[C@@H]2OC)O[C@H]1n1ccc(=O)[nH]c1=O [Cap analog 31, 3-O-Me-m7G(5′)ppp(5′)(2′OMeC)p(2′OMeU)] | – | – | 0.4 | – | 4.5 | 94.7
CO[C@@H]1[C@H](O)[C@@H](COP(=O)(O)O[C@H]2[C@@H](OC)[C@H](n3cnc4c(=O)[nH]c(N)nc43)O[C@@H]2COP(=O)(O)OP(=O)(O)OP(=O)([O-])OC[C@H]2O[C@@H](n3c[n+](C)c4c(=O)[nH]c(N)nc43)[C@H](O)[C@@H]2O)O[C@H]1n1ccc(N)nc1=O [Cap analog 10, m7G(5′)ppp(5′)(2′OMeG)p(2′OMeC)] | – | – | 0.18 | – | 6.0 | 94.93
CO[C@@H]1[C@H](O)[C@@H](COP(=O)(O)O[C@H]2[C@@H](OC)[C@H](n3ccc(=O)[nH]c3=O)O[C@@H]2COP(=O)(O)OP(=O)(O)OP(=O)([O-])OC[C@H]2O[C@@H](n3c[n+](C)c4c(=O)[nH]c(N)nc43)[C@H](O)[C@@H]2O)O[C@H]1n1ccc(N)nc1=O [Cap analog 12, m7G(5′)ppp(5′)(2′OMeU)p(2′OMeC)] | – | – | 0.19 | – | 4.9 | 94.86
CO[C@@H]1[C@H](O)[C@@H](COP(=O)(O)O[C@H]2[C@@H](OC)[C@H](n3cnc4c(=O)[nH]c(N)nc43)O[C@@H]2COP(=O)(O)OP(=O)(O)OP(=O)([O-])OC[C@H]2O[C@@H](n3c[n+](C)c4c(=O)[nH]c(N)nc43)[C@H](O)[C@@H]2O)O[C@H]1n1cnc2c(=O)[nH]c(N)nc21 [Cap analog 2, m7G(5′)ppp(5′)(2′OMeG)p(2′OMeG)] | – | – | 0.37 | – | 4.9 | 95.1
